Columns and labels:
DDR1 = biological target: T1, DDR1 (Homo sapiens, UniProt Q08345); assay: LanthaScreen Europium Kinase Binding assay, DDR1; conditions: 5 nM DDR1, 20 nM Kinase Tracer 178, 1 h at rt; Ki from IC50 by Cheng-Prusoff; read-out: Ki DDR1
T1 construct: purchased Carna Biosciences
Method: (§1) DDR1 and DDR2 binding assays were performed using Life Technologies LanthaScreen™ Europium Kinase Binding assay. The compounds were incubated with 5 nM DDR1 (Carna Biosciences) or 5 nM DDR2 (Life Technologies) for 1 h at rt in white 384-well OptiPlate (PerkinElmer), containing 20 nM or 10 nM Kinase Tracer 178 respectively and 2 nM Europium labelled anti-GST antibody (Life Technologies) in assay buffer (50 mM HEPES pH 7.5, 10 mM MgCI2, 1 mM EGTA and 0.01% BRIJ35). The ratio of fluorescence emission 665 nm/615 nm after excitation at 340 nm was obtained using the Tecan Spark 20M plate reader. IC50 values were determined in GraphPad Prism 7.0 software, using 4 parameter model: log(inhibitor) vs. response. IC50 values were converted in Ki using the Cheng-Prusoff equation (Ki=IC50/(1+[Tracer]/Kd).

DDR2 = biological target: T2, DDR2 (Homo sapiens, UniProt Q16832); assay: LanthaScreen Europium Kinase Binding assay, DDR2; conditions: 5 nM DDR2, 10 nM Kinase Tracer 178, 1 h at rt; Ki from IC50 by Cheng-Prusoff; read-out: Ki DDR2
T2 construct: purchased Life Technologies
T2 sequence (Q16832 22-855): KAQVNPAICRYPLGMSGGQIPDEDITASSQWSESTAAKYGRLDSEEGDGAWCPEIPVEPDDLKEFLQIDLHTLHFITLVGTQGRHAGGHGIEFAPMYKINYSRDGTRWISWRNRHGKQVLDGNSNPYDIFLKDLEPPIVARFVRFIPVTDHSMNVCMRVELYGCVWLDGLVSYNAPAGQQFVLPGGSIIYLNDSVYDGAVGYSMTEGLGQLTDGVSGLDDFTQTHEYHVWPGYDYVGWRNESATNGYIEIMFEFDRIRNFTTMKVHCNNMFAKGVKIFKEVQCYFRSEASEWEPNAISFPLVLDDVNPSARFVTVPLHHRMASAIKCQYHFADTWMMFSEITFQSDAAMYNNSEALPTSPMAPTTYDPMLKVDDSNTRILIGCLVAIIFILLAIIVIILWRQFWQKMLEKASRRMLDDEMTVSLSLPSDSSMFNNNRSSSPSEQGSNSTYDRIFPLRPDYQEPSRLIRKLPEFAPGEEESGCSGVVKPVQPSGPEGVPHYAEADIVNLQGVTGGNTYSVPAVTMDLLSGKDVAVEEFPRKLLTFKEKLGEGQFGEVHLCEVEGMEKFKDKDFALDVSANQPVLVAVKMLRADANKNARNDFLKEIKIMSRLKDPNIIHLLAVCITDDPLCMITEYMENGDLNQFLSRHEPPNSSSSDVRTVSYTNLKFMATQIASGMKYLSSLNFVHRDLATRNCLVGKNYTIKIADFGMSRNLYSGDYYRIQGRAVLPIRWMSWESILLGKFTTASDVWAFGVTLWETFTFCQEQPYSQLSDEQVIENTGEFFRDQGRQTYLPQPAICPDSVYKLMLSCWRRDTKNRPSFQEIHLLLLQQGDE
Method: as §1

T1 sequence (Q08345 19-913): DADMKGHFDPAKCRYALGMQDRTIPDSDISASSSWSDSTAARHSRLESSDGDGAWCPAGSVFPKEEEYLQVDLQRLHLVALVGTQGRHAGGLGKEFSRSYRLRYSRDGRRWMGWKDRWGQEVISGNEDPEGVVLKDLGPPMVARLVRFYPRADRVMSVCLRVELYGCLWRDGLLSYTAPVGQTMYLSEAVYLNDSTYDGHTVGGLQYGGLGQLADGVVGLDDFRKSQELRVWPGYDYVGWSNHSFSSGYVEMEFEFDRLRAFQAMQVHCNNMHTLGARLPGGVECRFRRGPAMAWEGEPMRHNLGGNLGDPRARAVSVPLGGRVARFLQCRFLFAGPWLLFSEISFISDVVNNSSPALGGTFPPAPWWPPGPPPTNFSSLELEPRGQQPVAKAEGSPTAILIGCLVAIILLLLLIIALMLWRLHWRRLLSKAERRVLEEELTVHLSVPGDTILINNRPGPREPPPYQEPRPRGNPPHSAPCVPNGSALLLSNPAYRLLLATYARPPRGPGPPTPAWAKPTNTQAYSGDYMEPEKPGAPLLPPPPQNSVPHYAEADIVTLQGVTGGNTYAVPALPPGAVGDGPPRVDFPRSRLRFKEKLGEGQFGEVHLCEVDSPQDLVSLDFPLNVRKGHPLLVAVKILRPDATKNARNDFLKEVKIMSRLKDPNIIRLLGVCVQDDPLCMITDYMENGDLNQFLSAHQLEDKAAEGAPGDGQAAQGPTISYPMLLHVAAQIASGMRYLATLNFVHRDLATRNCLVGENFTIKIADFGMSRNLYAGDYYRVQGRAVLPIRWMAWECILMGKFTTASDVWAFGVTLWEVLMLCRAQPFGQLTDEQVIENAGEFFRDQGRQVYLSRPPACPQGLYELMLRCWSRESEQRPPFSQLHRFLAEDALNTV

Row | SMILES | Ki (DDR1) [nM] | Ki (DDR2) [nM]
1 | Cc1ccc(C(=O)Nc2cncc(C(F)(F)F)c2)cc1[C@@H]1CCN(c2cncc(C(=O)NC3COC3)c2)C1 [Example 38, (S)-5-(3-(2-methyl-5-((5-(trifluoromethyl)pyridin-3-yl)carbamoyl)phenyl)pyrrolidin-1-yl)-N-(oxetan-3-yl)nicotinamide] | < 5 | < 5
2 | Cc1ccc(C(=O)Nc2cncc(C(F)(F)F)c2)cc1[C@@H]1CCN(c2cncc(C(=O)N[C@H]3C[C@@H](O)C3)c2)C1 [Example 39, N-((1s,3R)-3-hydroxycyclobutyl)-5-((S)-3-(2-methyl-5-((5-(trifluoromethyl)pyridin-3-yl)carbamoyl)phenyl)pyrrolidin-1-yl)nicotinamide] | < 5 | < 5
3 | Cc1ccc(C(=O)Nc2cncc(C(F)(F)F)c2)cc1[C@@H]1CCN(c2cncc(C(=O)N3CCN(C)CC3)c2)C1 [Example 40, (S)-4-methyl-3-(1-(5-(4-methylpiperazine-1-carbonyl)pyridin-3-yl)pyrrolidin-3-yl)-N-(5-(trifluoromethyl)pyridin-3-yl)benzamide] | < 5 | 5 to 25
4 | Cc1ccc(C(=O)Nc2cncc(C(F)(F)F)c2)cc1[C@@H]1CCN(c2cnccc2C(=O)NC2COC2)C1 [Example 41, (S)-3-(3-(2-methyl-5-((5-(trifluoromethyl)pyridin-3-yl)carbamoyl)phenyl)pyrrolidin-1-yl)-N-(oxetan-3-yl)isonicotinamide] | < 5 | 25 to 100
5 | Cc1ccc(C(=O)Nc2cncc(C(F)(F)F)c2)cc1N1CC(Oc2ccc(N)nc2)C1 [Example 44, 3-(3-((6-aminopyridin-3-yl)oxy)azetidin-1-yl)-4-methyl-N-(5-(trifluoromethyl)pyridin-3-yl)benzamide] | 5 to 25 | 25 to 100
6 | CC(=O)Nc1ccc(OC2CN(c3cc(C(=O)Nc4cncc(C(F)(F)F)c4)ccc3C)C2)cn1 [Example 45, 3-(3-((6-acetamidopyridin-3-yl)oxy)azetidin-1-yl)-4-methyl-N-(5-(trifluoromethyl)pyridin-3-yl)benzamide] | < 5 | 5 to 25
7 | COCC(=O)Nc1ccc(OC2CN(c3cc(C(=O)Nc4cncc(C(F)(F)F)c4)ccc3C)C2)cn1 [Example 46, 3-(3-((6-(2-methoxyacetamido)pyridin-3-yl)oxy)azetidin-1-yl)-4-methyl-N-(5-(trifluoromethyl)pyridin-3-yl)benzamide] | 5 to 25 | 25 to 100
8 | Cc1ccc(C(=O)Nc2cncc(C(F)(F)F)c2)cc1N1CC(Oc2cncc(N)c2)C1 [Example 47, 3-(3-((5-aminopyridin-3-yl)oxy)azetidin-1-yl)-4-methyl-N-(5-(trifluoromethyl)pyridin-3-yl)benzamide] | 5 to 25 | 5 to 25
9 | Cc1ccc(C(=O)Nc2cc(CN(C)C)nc(C(F)(F)F)c2)cc1[C@@H]1CCN(c2ccnc(C(N)=O)c2)C1 [Example 53, (S)-4-(3-(5-((2-((dimethylamino)methyl)-6-(trifluoromethyl)pyridin-4-yl)carbamoyl)-2-methylphenyl)pyrrolidin-1-yl)picolinamide] | < 5 | 5 to 25
10 | Cc1ccc(C(=O)Nc2cc(C3CC3)nn2C)cc1[C@@H]1CCN(c2cncc(-c3cnn(C)c3)c2)C1 [Example 59, (S)-N-(3-cyclopropyl-1-methyl-1H-pyrazol-5-yl)-4-methyl-3-(1-(5-(1-methyl-1H-pyrazol-4-yl)pyridin-3-yl)pyrrolidin-3-yl)benzamide] | < 5 | 5 to 25

The next lines start with the values.

Row | Ki (DDR1) [nM] | Ki (DDR2) [nM] | SMILES
11 | < 5 | < 5 | Cc1ccc(C(=O)Nc2cncc(C(F)(F)F)c2)cc1[C@@H]1CCN(c2cnn3cccnc23)C1 [Example 35, (S)-4-methyl-3-(1-(pyrazolo[1,5-a]pyrimidin-3-yl)pyrrolidin-3-yl)-N-(5-(trifluoromethyl)pyridin-3-yl)benzamide]
12 | < 5 | 5 to 25 | Cc1ccc(C(=O)Nc2cncc(C(F)(F)F)c2)cc1[C@@H]1CCN(c2cnc3cccnn23)C1 [Example 36, (S)-3-(1-(imidazo[1,2-b]pyridazin-3-yl)pyrrolidin-3-yl)-4-methyl-N-(5-(trifluoromethyl)pyridin-3-yl)benzamide]
13 | < 5 | < 5 | Cc1ccc(C(=O)Nc2cncc(C(F)(F)F)c2)cc1[C@@H]1CCN(c2cnc3cnccn23)C1 [Example 37, (S)-3-(1-(imidazo[1,2-a]pyrazin-3-yl)pyrrolidin-3-yl)-4-methyl-N-(5-(trifluoromethyl)pyridin-3-yl)benzamide]
14 | < 5 | < 5 | Cc1ccc(C(=O)Nc2cncc(C(F)(F)F)c2)cc1[C@@H]1CCN(c2cccnc2N)C1 [Example 42, (S)-3-(1-(2-aminopyridin-3-yl)pyrrolidin-3-yl)-4-methyl-N-(5-(trifluoromethyl)pyridin-3-yl)benzamide]
15 | < 5 | < 5 | Cc1ccc(C(=O)Nc2cncc(C(F)(F)F)c2)cc1[C@@H]1CCN(c2cnc3[nH]ncc3c2)C1 [Example 43, 4-methyl-3-[(3S)-1-(1H-pyrazolo[3,4-b]pyridin-5-yl)pyrrolidin-3-yl]-N-[5-(trifluoromethyl)-3-pyridyl]benzamide]
16 | < 5 | < 5 | Cc1ccc(C(=O)Nc2cc(OC(F)F)ccn2)cc1[C@@H]1CCN(c2cncc(C(N)=O)n2)C1 [Example 51, (S)-6-(3-(5-((4-(difluoromethoxy)pyridin-2-yl)carbamoyl)-2-methylphenyl)pyrrolidin-1-yl)pyrazine-2-carboxamide]
17 | < 5 | 5 to 25 | Cc1ccc(C(=O)Nc2cc(C(C)(C)C)n(C)n2)cc1[C@@H]1CCN(c2ccnc(C(N)=O)c2)C1 [Example 52, (S)-4-(3-(5-((5-(tert-butyl)-1-methyl-1H-pyrazol-3-yl)carbamoyl)-2-methylphenyl)pyrrolidin-1-yl)picolinamide]
18 | < 5 | < 5 | Cc1ccc(C(=O)Nc2cncc(C(F)(F)F)c2)cc1[C@@H]1CCN(c2cc(C(N)=O)ncn2)C1 [Example 54, (S)-6-(3-(2-methyl-5-((5-(trifluoromethyl)pyridin-3-yl)carbamoyl)phenyl)pyrrolidin-1-yl)pyrimidine-4-carboxamide]
19 | < 5 | < 5 | Cc1ccc(C(=O)Nc2cc(C(C)(C)C(F)(F)F)on2)cc1[C@@H]1CCN(c2cnccc2C#N)C1 [Example 55, (S)-3-(1-(4-cyanopyridin-3-yl)pyrrolidin-3-yl)-4-methyl-N-(5-(1,1,1-trifluoro-2-methylpropan-2-yl)isoxazol-3-yl)benzamide]
20 | < 5 | < 5 | CCc1cc(NC(=O)c2ccc(C)c([C@@H]3CCN(c4cnccc4C#N)C3)c2)no1 [Example 56, (S)-3-(1-(4-cyanopyridin-3-yl)pyrrolidin-3-yl)-N-(5-ethylisoxazol-3-yl)-4-methylbenzamide]
21 | < 5 | 5 to 25 | Cc1ccc(C(=O)Nc2cc(OC(F)(F)F)ccn2)cc1[C@@H]1CCN(c2ccnc(C(N)=O)c2)C1 [Example 57, (S)-4-(3-(2-methyl-5-((4-(trifluoromethoxy)pyridin-2-yl)carbamoyl)phenyl)pyrrolidin-1-yl)picolinamide]
22 | < 5 | < 5 | Cc1ccc(C(=O)Nc2cc(C(C)(C)C(F)(F)F)on2)cc1[C@@H]1CCN(c2cnccn2)C1 [Example 58, (S)-4-methyl-3-(1-(pyrazin-2-yl)pyrrolidin-3-yl)-N-(5-(1,1,1-trifluoro-2-methylpropan-2-yl)isoxazol-3-yl)benzamide]
23 | < 5 | < 5 | Cc1ccc(C(=O)Nc2cc(C(C)(C)C(F)(F)F)on2)cc1[C@H]1CCN(c2cncc(-c3cnn(C)c3)c2)C1 [Example 60, (R)-4-methyl-3-(1-(5-(1-methyl-1H-pyrazol-4-yl)pyridin-3-yl)pyrrolidin-3-yl)-N-(5-(1,1,1-trifluoro-2-methylpropan-2-yl)isoxazol-3-yl)benzamide]
